In US20130102631A1, “NOVEL MICROBIOCIDAL DIOXIME ETHER DERIVATIVES” (SYNGENTA CROP PROTECTION LLC, priority 2010, published 2013):

Columns and labels:
[1] = system: Puccinia recondita f. sp. tritici; assay: Puccinia recondita f. sp. tritici / wheat / leaf disc curative (brown rust); type: in vivo; details: foliar, wheat leaf segments cv Kanzler, 200 ppm applied 1 day after inoculation, assessed 6-8 days after application
Protocol: Puccinia recondita f. sp. tritici/Wheat/Leaf Disc Curative (Brown Rust): Wheat leaf segments cv Kanzler were placed on agar in 24-well plates. The leaf segments were inoculated with a spore suspension of the fungus. The plates were stored in darkness at 19° C. and 75% relative humidity. The formulated test compound diluted in water was applied at an application rate of 200 ppm 1 day after inoculation. […]-2.508; 5.561; 2.561; E/E-2.208; 2.513; 2.559; 2.556; 2.555; 2.374; 2.552; 2.537; 2.519; 2.516; 2.514; […].002; 2.512; E/E-2.507

[2] = system: Monographella nivalis (Microdochium nivale); assay: Monographella nivalis (Microdochium nivale) / liquid culture (foot rot cereals); type: cell-based; details: at ≦200 ppm, liquid culture PDB, inhibition of growth photometrically 4-5 days after application, read-out: control of Monographella nivalis
In short: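 Microdochium nivale conidia in potato dextrose broth added to compound delivered in DMSO, then incubated at 24 °C. Growth inhibition measured photometrically 4-5 days after application.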

[3] = system: Puccinia recondita f. sp. tritici; assay: Puccinia recondita f. sp. tritici / wheat / leaf disc preventative (brown rust); type: in vivo; details: foliar, wheat leaf segments cv Kanzler, inoculated 1 day after application, assessed 7-9 days after application
Protocol: Puccinia recondita f. sp. Tritici/Wheat/Leaf Disc Preventative (Brown Rust): Wheat leaf segments cultivated variety (cv) Kanzler were placed on agar in 24-well plates and sprayed with formulated test compound diluted in water at an application rate of 200 ppm. The leaf disks were inoculated with a spore suspension of the fungus 1 day after application. The inoculated leaf segments were incubated at 19° C. and 75% relative humidity under a light regime of 12/12 h (light/dark) in a climate cabinet and the activity of a compound was assessed as percent disease control compared to untreated when an appropriate level of disease damage appears in untreated check leaf segments (7-9 days after application). […]-2.508; 5.561; 2.561; 2.513; 2.559; 2.556; 2.555; 2.374; 2.544; 2.537; 2.530; 2.525 (fraction B); 2.519; 2.516; 2.514; E/E-5.167; E/E-3.002; 2.512; E/E-2.507

Pyrenophora teres = Pyrenophora teres / barley / leaf disc preventative (net blotch); type: in vivo; details: foliar, barley leaf segments cv Hasso, inoculated two days after application, assessed 5-7 days after application
Protocol: Pyrenophora teres/Barley/Leaf Disc Preventative (Net Blotch): Barley leaf segments cv Hasso are placed on agar in a 24-well plate and sprayed with formulated test compound diluted in water at an application rate of 200 ppm. The leaf segments are inoculated with a spore suspension of the fungus two days after application of the test solution. The inoculated leaf segments are incubated at 20° C. and 65% relative humidity under a light regime of 12/12 h (light/dark) in a climate cabinet and the activity of a compound is assessed as disease control compared to untreated when an appropriate level of disease damage appears in untreated check leaf segments (5-7 days after application). […]-2.507; 5.561; 2.561; E/E-2.208; P.57; 2.513; 2.559; 2.558; 2.556; 2.555; 2.374; 2.552; 2.544; 2.537; 2.533; 2.530; 2.528; 2.519; 2.510; 2.516; 2.514; E/E-5.167; E/E-3.002; 2.512

Gaeumannomyces graminis = Gaeumannomyces graminis / liquid culture (take-all of cereals); type: cell-based; details: at ≦200 ppm, liquid culture PDB, inhibition of growth photometrically 4-5 days after application, read-out: control of Gaeumannomyces graminis
In short: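 Mycelial fragments of the fungus in potato dextrose broth were added to wells containing compound in DMSO. Plates were incubated at 24° C, and growth inhibition was read photometrically 4-5 days after application.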

Glomerella lagenarium = Glomerella lagenarium (Colletotrichum lagenarium) / liquid culture (anthracnose); type: cell-based; details: Colletotrichum orbiculare; at ≦200 ppm, liquid culture PDB, inhibition of growth photometrically 3-4 days after application; read-out: control of Glomerella lagenarium
In short: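 Glomerella lagenarium conidia in potato dextrose broth added to test compound supplied in DMSO in microtiter wells. Plates incubated at 24° C.; growth inhibition measured photometrically 3-4 days after application.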

COc1cccc(/C(C)=N/OCC(C)(C)CO/N=C2\CCCc3ccc(C)nc32)n1 [Compound 2.374]
≥ 80%: pest or weed control at 200 ppm [1] | inhibition of growth at up to 200 µg/mL [2] | pest or weed control at 200 ppm [3] | pest or weed control at 200 ppm (Pyrenophora teres) | inhibition of growth at up to 200 µg/mL (Gaeumannomyces graminis) | inhibition of growth at up to 200 µg/mL (Glomerella lagenarium)

C/C(=N\OCC(C)(C)CO/N=C1\CCCc2ccc(C)nc21)c1ccc2ccccc2n1 [Compound 2.512]
≥ 80%: pest or weed control at 200 ppm [1] | inhibition of growth at up to 200 µg/mL [2] | pest or weed control at 200 ppm [3] | pest or weed control at 200 ppm (Pyrenophora teres) | inhibition of growth at up to 200 µg/mL (Gaeumannomyces graminis) | inhibition of growth at up to 200 µg/mL (Glomerella lagenarium)

C/C(=N\OCC(C)(C)CO/N=C1\CCCc2ccc(C)nc21)c1ccc2c(n1)CCCC2 [Compound 2.513]
≥ 80%: pest or weed control at 200 ppm [1] | inhibition of growth at up to 200 µg/mL [2] | pest or weed control at 200 ppm [3] | pest or weed control at 200 ppm (Pyrenophora teres) | inhibition of growth at up to 200 µg/mL (Gaeumannomyces graminis) | inhibition of growth at up to 200 µg/mL (Glomerella lagenarium)

C/C(=N\OCCCO/N=C1\CCCc2ccc(C)nc21)c1cccc(-c2ccccc2)n1 [Compound 2.514]
≥ 80%: pest or weed control at 200 ppm [1] | inhibition of growth at up to 200 µg/mL [2] | pest or weed control at 200 ppm [3] | pest or weed control at 200 ppm (Pyrenophora teres) | inhibition of growth at up to 200 µg/mL (Gaeumannomyces graminis) | inhibition of growth at up to 200 µg/mL (Glomerella lagenarium)

CC/C(=N\OCC(C)(C)CO/N=C1\CCCc2ccc(C)nc21)c1ccccn1 [Compound 2.516]
≥ 80%: pest or weed control at 200 ppm [1] | inhibition of growth at up to 200 µg/mL [2] | pest or weed control at 200 ppm [3] | pest or weed control at 200 ppm (Pyrenophora teres) | inhibition of growth at up to 200 µg/mL (Gaeumannomyces graminis) | inhibition of growth at up to 200 µg/mL (Glomerella lagenarium)

C/C(=N/OCC(C)(C)CO/N=C1\CCCc2ccc(C)nc21)c1ccccn1 [Compound 2.519]
≥ 80%: pest or weed control at 200 ppm [1] | inhibition of growth at up to 200 µg/mL [2] | pest or weed control at 200 ppm [3] | pest or weed control at 200 ppm (Pyrenophora teres) | inhibition of growth at up to 200 µg/mL (Gaeumannomyces graminis) | inhibition of growth at up to 200 µg/mL (Glomerella lagenarium)

Cc1ccc2c(n1)/C(=N/OCC(C)(C)CO/N=C/c1cccc(Oc3ccccc3)n1)CCC2 [Compound 2.530]
≥ 80%: inhibition of growth at up to 200 µg/mL [2] | pest or weed control at 200 ppm [3] | pest or weed control at 200 ppm (Pyrenophora teres) | inhibition of growth at up to 200 µg/mL (Glomerella lagenarium)

Cc1ccc(O)c(/C=N/OCC(C)(C)CO/N=C2\CCCc3ccc(C)nc32)n1 [Compound 2.533]
≥ 80%: inhibition of growth at up to 200 µg/mL [2] | pest or weed control at 200 ppm (Pyrenophora teres) | inhibition of growth at up to 200 µg/mL (Gaeumannomyces graminis) | inhibition of growth at up to 200 µg/mL (Glomerella lagenarium)

C/C(=N\OCC(C)(C)CO/N=C1\CCCc2ccc(Cl)nc21)c1cc(C)cc(C)n1 [Compound 2.555]
≥ 80%: pest or weed control at 200 ppm [1] | inhibition of growth at up to 200 µg/mL [2] | pest or weed control at 200 ppm [3] | pest or weed control at 200 ppm (Pyrenophora teres) | inhibition of growth at up to 200 µg/mL (Gaeumannomyces graminis) | inhibition of growth at up to 200 µg/mL (Glomerella lagenarium)

C/C(=N\OCC(C)(C)CO/N=C1\CCCc2ccc(Oc3ccccc3)nc21)c1cc(C)cc(C)n1 [Compound 2.556]
≥ 80%: pest or weed control at 200 ppm [1] | inhibition of growth at up to 200 µg/mL [2] | pest or weed control at 200 ppm [3] | pest or weed control at 200 ppm (Pyrenophora teres) | inhibition of growth at up to 200 µg/mL (Gaeumannomyces graminis) | inhibition of growth at up to 200 µg/mL (Glomerella lagenarium)

C/C(=N\OCC(C)(C)CO/N=C1\CCCc2ccc(-c3cccc(C)n3)nc21)c1cc(C)cc(C)n1 [Compound 2.559]
≥ 80%: pest or weed control at 200 ppm [1] | inhibition of growth at up to 200 µg/mL [2] | pest or weed control at 200 ppm [3] | pest or weed control at 200 ppm (Pyrenophora teres) | inhibition of growth at up to 200 µg/mL (Gaeumannomyces graminis) | inhibition of growth at up to 200 µg/mL (Glomerella lagenarium)

C/C(=N\OCC(C)(C)CO/N=C1\CCCc2c1nc1ccccc1c2C)c1cc(C)cc(C)n1 [Compound 2.561]
≥ 80%: pest or weed control at 200 ppm [1] | pest or weed control at 200 ppm [3] | pest or weed control at 200 ppm (Pyrenophora teres) | inhibition of growth at up to 200 µg/mL (Gaeumannomyces graminis) | inhibition of growth at up to 200 µg/mL (Glomerella lagenarium)

C/C(=N\OCC1(CO/N=C2\CCCc3c2nc2ccccc2c3C)CC1)c1cc(C)cc(C)n1 [Compound 5.561]
≥ 80%: pest or weed control at 200 ppm [1] | pest or weed control at 200 ppm [3] | pest or weed control at 200 ppm (Pyrenophora teres) | inhibition of growth at up to 200 µg/mL (Gaeumannomyces graminis) | inhibition of growth at up to 200 µg/mL (Glomerella lagenarium)

C/C(=N\OCC(C)(C)CO/N=C1\CCCc2ccc(C)nc21)c1cccc(C)n1 [E/E-2.002]
≥ 80%: pest or weed control at 200 ppm [1] | inhibition of growth at up to 200 µg/mL [2] | pest or weed control at 200 ppm [3] | pest or weed control at 200 ppm (Pyrenophora teres) | inhibition of growth at up to 200 µg/mL (Gaeumannomyces graminis) | inhibition of growth at up to 200 µg/mL (Glomerella lagenarium)

C/C(=N\OCC(C)(C)CO/N=C1\CCCc2ccc(C)nc21)c1cc(C)cc(C)n1 [E/E-2.168]
≥ 80%: pest or weed control at 200 ppm [1] | inhibition of growth at up to 200 µg/mL [2] | pest or weed control at 200 ppm [3] | pest or weed control at 200 ppm (Pyrenophora teres) | inhibition of growth at up to 200 µg/mL (Gaeumannomyces graminis) | inhibition of growth at up to 200 µg/mL (Glomerella lagenarium)

Cc1cccc(/C(=N/OCC(C)(C)CO/N=C2\CCCc3ccc(C)nc32)c2ccccc2)n1 [E/E-2.474]
≥ 80%: pest or weed control at 200 ppm [1] | inhibition of growth at up to 200 µg/mL [2] | pest or weed control at 200 ppm [3] | pest or weed control at 200 ppm (Pyrenophora teres) | inhibition of growth at up to 200 µg/mL (Gaeumannomyces graminis) | inhibition of growth at up to 200 µg/mL (Glomerella lagenarium)

Cc1ccc2c(n1)/C(=N/OCC(C)(C)CO/N=C/c1ccc3ccccc3n1)CCC2 [E/E-2.507]
≥ 80%: pest or weed control at 200 ppm [1] | inhibition of growth at up to 200 µg/mL [2] | pest or weed control at 200 ppm [3] | pest or weed control at 200 ppm (Pyrenophora teres) | inhibition of growth at up to 200 µg/mL (Gaeumannomyces graminis) | inhibition of growth at up to 200 µg/mL (Glomerella lagenarium)

C/C(=N\OCC(C)(C)CO/N=C1\CCCc2ccc(C)nc21)c1cccc(Br)n1 [E/E-2.508]
≥ 80%: pest or weed control at 200 ppm [1] | inhibition of growth at up to 200 µg/mL [2] | pest or weed control at 200 ppm [3] | inhibition of growth at up to 200 µg/mL (Gaeumannomyces graminis) | inhibition of growth at up to 200 µg/mL (Glomerella lagenarium)

C=C(CO/N=C(\C)c1cccc(C)n1)CO/N=C1\CCCc2ccc(C)nc21 [E/E-3.002]
≥ 80%: pest or weed control at 200 ppm [1] | pest or weed control at 200 ppm [3] | pest or weed control at 200 ppm (Pyrenophora teres) | inhibition of growth at up to 200 µg/mL (Gaeumannomyces graminis) | inhibition of growth at up to 200 µg/mL (Glomerella lagenarium)
